Experimental data published in ChEMBL document CHEMBL1130681, “Synthesis of 5-substituted quinazolinone derivatives and their inhibitory activity in vitro” (Bioorg Med Chem Lett, 1998).

Assays:
Type in all cases: functional, cell-based
CCRF-CEM = test: Concentration required to inhibit CCRF-CEM (human leukemia) cell lines
HT-29 = test: Concentration required to inhibit HT-29 (human colon adenocarcinoma) cell lines
L1210 = test: Concentration required to inhibit L1210 (mouse lymphocytic leukemia) cell lines
LY3.7.2C TK-/- cell line = test: Concentration required to inhibit LY3.7.2C TK-/-(mouse lymphoma, thymidine kinase deficient) cell lines

| Compound | IC50 (CCRF-CEM) | IC50 (HT-29) | IC50 (L1210) | IC50 (LY3.7.2C TK-/- cell line) |
| --- | --- | --- | --- | --- |
| COC(=O)[C@@H](NC(=O)c1ccc(Sc2c(C)ccc3nc(N)nc(O)c23)cc1)c1cccc(O)c1 | 1500 nM | 8400 nM | 2000 nM | 300 nM |
| Cc1ccc2nc(N)nc(O)c2c1Sc1ccc(C(=O)N[C@H](C(=O)O)c2ccccc2)cc1 | 5400 nM | > 20000 nM | 2000 nM | 800 nM |
| Cc1ccc2nc(N)nc(O)c2c1Sc1ccc(C(=O)N[C@H](C(=O)O)c2cccc(C(=O)O)c2)cc1 | 50 nM | 1200 nM | 500 nM | 700 nM |
| COC(=O)c1cccc([C@H](NC(=O)c2ccc(Sc3c(C)ccc4nc(N)nc(O)c34)cc2)C(=O)OC)c1 | 200 nM | 600 nM | 700 nM | 700 nM |
| Cc1ccc2nc(N)nc(O)c2c1Sc1ccc(C(=O)N[C@H](C(=O)O)c2cccc(O)c2)cc1 | 3400 nM | 17000 nM | 700 nM | 600 nM |
| Cc1ccc2nc(N)[nH]c(=O)c2c1Sc1ccncc1 [NOLATREXED] | 800 nM | 3700 nM | 1100 nM | 1500 nM |
| COC(=O)[C@@H](NC(=O)c1ccc(Sc2c(C)ccc3nc(N)nc(O)c23)cc1)c1ccccc1 | 200 nM | 600 nM | 400 nM | 500 nM |
